{"source": "patent US6376666B1", "about": "(Nauchno-Issledovatelsky Institut Farmakologii Rossiiskoi …, priority 1994, dated 2002)", "key": {"C57B1/6 mice": {"test_system": "C57B1/6 mice", "experiment": "open-field test, C57B1/6 mice (active type of emotional-stress reaction)", "format": "in vivo", "details": "i.p., doses that activate Balb/c mice", "how_it_was_run": "(§1)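 Male mice, 20-22 g, dosed i.p. in water 30 min before a 3-min open-field test after 1 min in darkness; peripheral, central, rearing and total activity plus defecations recorded; Student t-test. Anxiolysis read as Balb/c activation, sedation as C57B1/6 inhibition.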"}, "Balb/c mice": {"test_system": "Balb/c mice", "experiment": "open-field test, Balb/c mice (passive type of emotional-stress reaction)", "format": "in vivo", "parameters": "key to Total activity: sum of all locomotor activity counts (crossings + rearings) in 3 min", "how_it_was_run": "as §1"}, "aconitine arrhythmia": {"test_system": "aconitine arrhythmia", "experiment": "animal or person", "format": "in vivo, rats", "procedure": "Aconitine arrhythmia. The aconitine arrhythmia was induced in concious rats weighing 180-200 g by the injection in tail vein of the aconitine sulfate solution at dose range of […]. […] The tested compounds were administered i.v. 3 min prior aconitine injection. The ED50 value was calculated according to Litchfield's method."}, "[1]": {"test_system": "calcium chloride arrhythmia", "experiment": "calcium chloride arrhythmia in concious rats", "format": "in vivo", "procedure": "In these experiments the outbred concious rats 180-200 g of weight were injected with 10% solution of calcium chloride in tail vein at dose range of 250-300 mg/kg."}, "adrenaline arrhythmia": {"test_system": "adrenaline arrhythmia", "experiment": "adrenaline arrhythmia in concious rabbits", "details": "given 2 min before arrhythmogenic dose of adrenaline", "protocol": "Adrenaline arrhythmia. The 0,1% solution of adrenaline hydrochloride was injected to the marginal ear's vein of rabbit weighing 2,5-3,0 kg at dose ranging 120-150 mcg/kg which induced cardiac rhythm disturbances of two types.\nThe tested compound was injected in 3 ml of distilled water 30 min after determination of arrhythmogenic dose of adrenaline and the ECG was recorded in 2nd standard lead. 2 min after administration of tested compound the arrhythmogenic dose of adrenaline was injected."}, "[2]": {"test_system": "ventricular disturbances of heart rhythm", "experiment": "arrhythmia in concious dogs according to Harris", "format": "in vivo", "details": "for % ectopic contractions, change vs basal level / Heart rate, change vs basal level: 2 mg/kg i.v.", "procedure": "The arrhythmia in concious dogs according to Harris. The experiments were conducted in mongrel dogs of either sex weighing 9-14 kg. Under anesthesia (40 mg/kg of nembutal i.v.) and artificial respiration the two-step occlusion of the left anterior descending coronary artery was performed. The constant ECG disturbances of the heart rhythm were recorded after 24 hours. […] T-Student' test was used for statistical calculation."}, "[3]": {"details": "0.1 mg/kg i.p., M ± mx, 0.1 mg/kg"}, "[4]": {"details": "1.0 mg/kg i.p., M ± mx, 1 mg/kg"}, "[5]": {"details": "10.0 mg/kg i.p., M ± mx, 10 mg/kg"}}, "data": [{"smiles": "CCOc1ccc2nc(SCCN(CC)CC)[nH]c2c1", "note": "[Compound IX, 2-[2-(Diethylamino)ethylthio]-5-ethoxybenz-imidazole]", "values": [{"measurement": "effect on locomotor activity of C57B1/6 mice in open-field test, in words", "setting": "C57B1/6 mice", "result": "without any changes in locomotor activity"}, {"measurement": "Number of defecations", "setting": "Balb/c mice; 0.1 mg/kg i.p., M ± mx", "result": "0.1 ± 0.1"}, {"measurement": "Peripheral activity (crossings)", "setting": "Balb/c mice; [3]", "result": "15.1 ± 9.0"}, {"measurement": "Total activity", "setting": "Balb/c mice; [3]", "result": "15.1 ± 9.0"}, {"measurement": "Peripheral activity (crossings)", "setting": "Balb/c mice; [4]", "result": "39.8 ± 7.3"}, {"measurement": "Total activity", "setting": "Balb/c mice; [4]", "result": "39.8 ± 7.3"}, {"measurement": "Peripheral activity (crossings)", "setting": "Balb/c mice; 5.0 mg/kg i.p., M ± mx", "result": "44.1 ± 10.2"}, {"measurement": "Total activity", "setting": "Balb/c mice; 5.0 mg/kg i.p., M ± mx", "result": "44.1 ± 10.2"}, {"measurement": "Peripheral activity (crossings)", "setting": "Balb/c mice; [5]", "result": "36.8 ± 5.0"}, {"measurement": "Total activity", "setting": "Balb/c mice; [5]", "result": "36.8 ± 5.0"}, {"measurement": "Peripheral activity (crossings)", "setting": "Balb/c mice; 20.0 mg/kg i.p., M ± mx", "result": "17.8 ± 5.5"}, {"measurement": "Total activity", "setting": "Balb/c mice; 20.0 mg/kg i.p., M ± mx", "result": "17.8 ± 5.5"}, {"measurement": "effect on the behavior (locomotor activity) of Balb/c mice in open-field test, in words", "setting": "Balb/c mice; i.p., screening", "result": "able to activate the behavior of Balb/c mice"}, {"measurement": "LD50/ED50 (antiarrhythmic index)", "setting": "aconitine arrhythmia; LD50 i.v. / ED50 aconitine arrhythmia", "result": "26,2"}, {"measurement": "ED50", "setting": "aconitine arrhythmia; Rattus norvegicus, iv, read-out: Aconitine arrhythmia ED50", "result": 1.2, "unit": "mg/kg"}, {"measurement": "activity relative to lidocaine, aconitine arrhythmia", "setting": "aconitine arrhythmia; rats, higher than lidocaine", "result": "6,5 folds"}, {"measurement": "activity relative to quinidine, aconitine arrhythmia", "setting": "aconitine arrhythmia; rats, higher than quinidine", "result": "4,4 folds"}, {"measurement": "ED50", "setting": "[1]; Rattus norvegicus, iv, concious rats, given 2 min prior calcium chloride 250-300 mg/kg i.v., read-out: Calcium chloride arrhythmia ED50 (mean effective dose)", "result": 1, "unit": "mg/kg"}, {"measurement": "effect on death from lethal ventricular fibrillation, in words", "setting": "[1]; concious rats, injected 2 min prior calcium chloride", "result": "prevents the death of animals"}, {"measurement": "activity relative to lidocaine, calcium chloride arrhythmia", "setting": "[1]; rats, higher than lidocaine", "result": "7,5 folds"}, {"measurement": "activity relative to novocainamide, calcium chloride arrhythmia", "setting": "[1]; rats, higher than novocainamide", "result": 50, "unit": "folds"}, {"measurement": "Adrenaline arrhythmia. Range of active doses", "setting": "adrenaline arrhythmia", "result": "0.3 to 0.7", "unit": "mg/kg"}, {"measurement": "antiarrhythmic effect, in words", "setting": "[2]; concious dogs with ventricular disturbances of heart rhythm, i.v.", "result": "pronounced antiarrhythmic effect"}, {"measurement": "% ectopic contractions, change vs basal level", "setting": "[2]; concious dogs, after 3 min", "result": "−44.8 ± 15.0", "unit": "%"}, {"measurement": "Heart rate, change vs basal level", "setting": "[2]; concious dogs, after 3 min", "result": "+3.2 ± 8.4 beats/min"}, {"measurement": "% ectopic contractions, change vs basal level", "setting": "[2]; concious dogs, after 5 min", "result": "−43.8 ± 13.3", "unit": "%"}, {"measurement": "Heart rate, change vs basal level", "setting": "[2]; concious dogs, after 5 min", "result": "−5.2 ± 9.2", "unit": "beats/min"}, {"measurement": "% ectopic contractions, change vs basal level", "setting": "[2]; concious dogs, after 10 min", "result": "−59.4 ± 7.8", "unit": "%"}, {"measurement": "Heart rate, change vs basal level", "setting": "[2]; concious dogs, after 10 min", "result": "−14.6 ± 12.0", "unit": "beats/min"}, {"measurement": "% ectopic contractions, change vs basal level", "setting": "[2]; concious dogs, after 20 min", "result": "−41.4 ± 8.1", "unit": "%"}, {"measurement": "Heart rate, change vs basal level", "setting": "[2]; concious dogs, after 20 min", "result": "−16.4 ± 6.6 & beats/min"}, {"measurement": "% ectopic contractions, change vs basal level", "setting": "[2]; concious dogs, after 30 min", "result": "−24.8 ± 5.8", "unit": "%"}, {"measurement": "Heart rate, change vs basal level", "setting": "[2]; concious dogs, after 30 min", "result": "−5.6 ± 2.1 & beats/min"}, {"measurement": "% ectopic contractions, change vs basal level", "setting": "[2]; concious dogs, after 60 min", "result": "−17.2 ± 9.1", "unit": "%"}, {"measurement": "Heart rate, change vs basal level", "setting": "[2]; concious dogs, after 60 min", "result": "−5.2 ± 4.1 & beats/min"}, {"measurement": "duration of antiarrhythmic effect", "setting": "[2]; concious dogs, 2,0 mg/kg i.v.", "result": 50, "unit": "min"}, {"measurement": "effect on heart rate, in words", "setting": "[2]; concious dogs, i.v.", "result": "gradual bradycardia"}, {"measurement": "tolerability / side effects, in words", "setting": "[2]; concious dogs, i.v.", "result": "no side effects"}]}]}
